What was measured:
barnyardgrass [1] = assay: Test C preemergence; format: in vivo, Echinochloa crusgalli; details: 0 to 100 scale (0 no effect, 100 complete control); for Barnyardgrass plant response rating: preemergence
Outline: (§1)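 Seeds sown in loam soil–sand blend received a directed preemergence soil spray of test chemical in non-phytotoxic solvent with surfactant; postemergence plants (2–10 cm, one- to two-leaf stage) were sprayed with the same formulation. Greenhouse-held 10 days, then visually rated for injury versus untreated controls, 0 (no effect) to 100 (complete control).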

blackgrass [2] = assay: Test C preemergence; format: in vivo, Alopecurus myosuroides; details: 0 to 100 scale (0 no effect, 100 complete control); for Blackgrass plant response rating: preemergence
Outline: as §1

corn [3] = assay: Test C preemergence; format: in vivo, Zea mays; details: 0 to 100 scale (0 no effect, 100 complete control); for Corn plant response rating: preemergence
Outline: as §1

green foxtail [4] = assay: Test C preemergence; format: in vivo, Setaria viridis; details: 0 to 100 scale (0 no effect, 100 complete control); for Foxtail, Green plant response rating: preemergence
Outline: as §1

kochia [5] = assay: Test C preemergence; format: in vivo, Bassia scoparia; details: 0 to 100 scale (0 no effect, 100 complete control); for Kochia plant response rating: preemergence
Outline: as §1

oat, wild [6] = assay: Test C preemergence; format: in vivo, Avena fatua; details: 0 to 100 scale (0 no effect, 100 complete control); for Oat, Wild plant response rating: preemergence
Outline: as §1

pigweed, palmer [7] = assay: Test C preemergence; format: in vivo, Amaranthus palmeri; details: 0 to 100 scale (0 no effect, 100 complete control); for Pigweed, Palmer plant response rating: preemergence
Outline: as §1

ragweed [8] = assay: Test C preemergence; format: in vivo, Ambrosia artemisiifolia; details: 0 to 100 scale (0 no effect, 100 complete control); for Ragweed plant response rating: preemergence
Outline: as §1

ryegrass, Italian [9] = assay: Test C preemergence; format: in vivo, Lolium multiflorum; details: 0 to 100 scale (0 no effect, 100 complete control); for Ryegrass, Italian plant response rating: preemergence
Outline: as §1

soybean [10] = assay: Test C preemergence; format: in vivo, Glycine max; details: 0 to 100 scale (0 no effect, 100 complete control); for Soybean plant response rating: preemergence
Outline: as §1

wheat [11] = assay: Test C preemergence; format: in vivo, Triticum aestivum; details: 0 to 100 scale (0 no effect, 100 complete control); for Wheat plant response rating: preemergence
Outline: as §1

barnyardgrass [12] = assay: Test C postemergence; format: in vivo, Echinochloa crusgalli; details: 10 days
Outline: as §1

blackgrass [13] = assay: Test C postemergence; format: in vivo, Alopecurus myosuroides; details: 10 days
Outline: as §1

corn [14] = assay: Test C postemergence; format: in vivo, Zea mays; details: 10 days
Outline: as §1

green foxtail [15] = assay: Test C postemergence; format: in vivo, Setaria viridis; details: 10 days
Outline: as §1

kochia [16] = assay: Test C postemergence; format: in vivo, Bassia scoparia; details: 10 days
Outline: as §1

oat, wild [17] = assay: Test C postemergence; format: in vivo, Avena fatua; details: 10 days
Outline: as §1

pigweed, palmer [18] = assay: Test C postemergence; format: in vivo, Amaranthus palmeri; details: 10 days
Outline: as §1

ragweed [19] = assay: Test C postemergence; format: in vivo, Ambrosia artemisiifolia; details: 10 days
Outline: as §1

ryegrass, Italian [20] = assay: Test C postemergence; format: in vivo, Lolium multiflorum; details: 10 days
Outline: as §1

soybean [21] = assay: Test C postemergence; format: in vivo, Glycine max; details: 10 days
Outline: as §1

wheat [22] = assay: Test C postemergence; format: in vivo, Triticum aestivum; details: 10 days
Outline: as §1

galium = assay: Test C postemergence; format: in vivo, Galium aparine; details: 10 days
Outline: as §1

horseweed = assay: Test C postemergence; format: in vivo, Erigeron canadensis; details: 10 days
Outline: as §1

barnyardgrass [23] = assay: Test D flooded paddy test; format: in vivo, Echinochloa crus-galli; details: 250 g ai/ha, applied to paddy water, visual rating after 13 to 14 days, scale 0 to 100 (0 no effect, 100 complete control)
Outline: (§2)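 2-leaf plants; flood 3 cm above soil; compound dosed into paddy water; greenhouse 13–14 d; visual rating vs controls, 0–100 (100 = complete control); dash = not tested.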

ducksalad = assay: Test D flooded paddy test; format: in vivo, Heteranthera limosa; details: 250 g ai/ha, applied to paddy water, visual rating after 13 to 14 days, scale 0 to 100 (0 no effect, 100 complete control)
Outline: as §2

rice = assay: Test D flooded paddy test; format: in vivo, Oryza sativa; details: 250 g ai/ha, applied to paddy water, visual rating after 13 to 14 days, scale 0 to 100 (0 no effect, 100 complete control)
Outline: as §2

sedge, umbrella = assay: Test D flooded paddy test; format: in vivo, Cyperus difformis; details: 250 g ai/ha, applied to paddy water, visual rating after 13 to 14 days, scale 0 to 100 (0 no effect, 100 complete control)
Outline: as §2

[24] = Preemergence, 500 g ai/ha, visual rating after 10 days
[25] = 125 g ai/ha, postemergence, 0 to 100 scale, 0 no effect, 100 complete control
[26] = Postemergence, 500 g ai/ha, visual 0 to 100 scale (0 no effect, 100 complete control)
[27] = 500 g ai/ha, postemergence, 0 to 100 scale (0 no effect, 100 complete control)

In the case of `Cc1ccc(-n2cnc(C3CCC3)n2)cc1C(=O)N1CC(C(F)(F)F)Oc2c(Cl)cccc21` (single isomer, unassigned) [Compound 219], the “Plant response rating, Barnyardgrass” value (barnyardgrass [1]; [24]) is reported as 100, the “Barnyardgrass plant response rating” value (barnyardgrass [1]; Test C, 125 g ai/ha) is reported as 80 and the “Plant response rating, Blackgrass” value (blackgrass [2]; [24]) is reported as 40. The “Blackgrass plant response rating” value (blackgrass [2]; Test C, 125 g ai/ha) was 0, the “Plant response rating, Corn” value (corn [3]; [24]) was 20 and the “Corn plant response rating” value (corn [3]; Test C, 125 g ai/ha) was 10. The “Plant response rating, Foxtail, Green” value (green foxtail [4]; [24]) was 100, the “Foxtail, Green plant response rating” value (green foxtail [4]; Test C, 125 g ai/ha) was 100 and the “Plant response rating, Kochia” value (kochia [5]; [24]) was 100. For the same molecule, the “Kochia plant response rating” value (kochia [5]; Test C, 125 g ai/ha) was 90, the “Plant response rating, Oat, Wild” value (oat, wild [6]; [24]) was 70 and the “Oat, Wild plant response rating” value (oat, wild [6]; Test C, 125 g ai/ha) was 30. For the same molecule, the “Plant response rating, Pigweed, Palmer” value (pigweed, palmer [7]; [24]) was 100, the “Pigweed, Palmer plant response rating” value (pigweed, palmer [7]; Test C, 125 g ai/ha) was 100 and the “Plant response rating, Ragweed” value (ragweed [8]; [24]) was 70. For the same molecule, the “Ragweed plant response rating” value (ragweed [8]; Test C, 125 g ai/ha) was 30, the “Plant response rating, Ryegrass, Italian” value (ryegrass, Italian [9]; [24]) was 80 and the “Ryegrass, Italian plant response rating” value (ryegrass, Italian [9]; Test C, 125 g ai/ha) was 90. For the same molecule, the “Plant response rating, Soybean” value (soybean [10]; [24]) was 90, the “Soybean plant response rating” value (soybean [10]; Test C, 125 g ai/ha) was 70 and the “Plant response rating, Wheat” value (wheat [11]; [24]) was 50. For the same molecule, the “Wheat plant response rating” value (wheat [11]; Test C, 125 g ai/ha) was 20, the “Plant response rating, Barnyardgrass” value (barnyardgrass [12]; [25]) was 70 and the “Plant response rating, Barnyardgrass” value (barnyardgrass [12]; [26]) was 100. For the same molecule, the “Plant response rating, Blackgrass” value (blackgrass [13]; [25]) was 40, the “Plant response rating, Blackgrass” value (blackgrass [13]; [26]) was 50 and the “Plant response rating, Corn” value (corn [14]; [25]) was 20. The “Plant response rating, Corn” value (corn [14]; [26]) was 30, the “Plant response rating, Foxtail, Green” value (green foxtail [15]; [25]) was 80 and the “Plant response rating, Foxtail, Green” value (green foxtail [15]; [26]) was 90. The “Plant response rating, Kochia” value (kochia [16]; [25]) was 80, the “Plant response rating, Kochia” value (kochia [16]; [26]) was 90 and the “Plant response rating, Oat, Wild” value (oat, wild [17]; [25]) was 10. For the same molecule, the “Plant response rating, Oat, Wild” value (oat, wild [17]; [26]) was 40, the “Plant response rating, Pigweed, Palmer” value (pigweed, palmer [18]; [25]) was 100 and the “Plant response rating, Pigweed, Palmer” value (pigweed, palmer [18]; [26]) was 100. For the same molecule, the “Plant response rating, Ragweed” value (ragweed [19]; [25]) was 50, the “Plant response rating, Ragweed” value (ragweed [19]; [26]) was 90 and the “Plant response rating, Ryegrass, Italian” value (ryegrass, Italian [20]; [25]) was 50. The “Plant response rating, Ryegrass, Italian” value (ryegrass, Italian [20]; [26]) was 70, the “Plant response rating, Soybean” value (soybean [21]; [25]) was 100 and the “Plant response rating, Soybean” value (soybean [21]; [26]) was 100. The “Plant response rating, Wheat” value (wheat [22]; [25]) was 20, the “Plant response rating, Wheat” value (wheat [22]; [26]) was 40 and the “Plant response rating, Galium” value (galium; [25]) was 100. For the same molecule, the “Plant response rating, Galium” value (galium; [26]) was 100, the “Plant response rating, Horseweed” value (horseweed; [26]) was 70 and the “Plant response rating, Barnyardgrass (Flood)” value (barnyardgrass [23]) was 10. The “Plant response rating, Ducksalad (Flood)” value (ducksalad) was 50, the “Plant response rating, Rice (Flood)” value (rice) was 0 and the “Plant response rating, Sedge, Umbrella (Flood)” value (sedge, umbrella) was 50.

`CC(C)c1ncn(-c2cccc(C(=O)N3CC(C(F)(F)F)Oc4c(Cl)cccc43)c2)n1` (single isomer, unassigned) [Compound 288] was tested, and the “Barnyardgrass plant response rating” value (barnyardgrass [1]; 500 g ai/ha) was 30, the “Barnyardgrass plant response rating” value (barnyardgrass [1]; Test C, 125 g ai/ha) was 0 and the “Blackgrass plant response rating” value (blackgrass [2]; 500 g ai/ha) was 60. The “Blackgrass plant response rating” value (blackgrass [2]; Test C, 125 g ai/ha) was 10, the “Corn plant response rating” value (corn [3]; 500 g ai/ha) was 10 and the “Corn plant response rating” value (corn [3]; Test C, 125 g ai/ha) was 0. For the same molecule, the “Foxtail, Green plant response rating” value (green foxtail [4]; 500 g ai/ha) was 70, the “Foxtail, Green plant response rating” value (green foxtail [4]; Test C, 125 g ai/ha) was 0 and the “Kochia plant response rating” value (kochia [5]; 500 g ai/ha) was 50. The “Kochia plant response rating” value (kochia [5]; Test C, 125 g ai/ha) was 10, the “Oat, Wild plant response rating” value (oat, wild [6]; 500 g ai/ha) was 20 and the “Oat, Wild plant response rating” value (oat, wild [6]; Test C, 125 g ai/ha) was 20. For the same molecule, the “Pigweed, Palmer plant response rating” value (pigweed, palmer [7]; 500 g ai/ha) was 80, the “Pigweed, Palmer plant response rating” value (pigweed, palmer [7]; Test C, 125 g ai/ha) was 50 and the “Ragweed plant response rating” value (ragweed [8]; 500 g ai/ha) was 0. For the same molecule, the “Ragweed plant response rating” value (ragweed [8]; Test C, 125 g ai/ha) was 0, the “Ryegrass, Italian plant response rating” value (ryegrass, Italian [9]; 500 g ai/ha) was 80 and the “Ryegrass, Italian plant response rating” value (ryegrass, Italian [9]; Test C, 125 g ai/ha) was 80. For the same molecule, the “Soybean plant response rating” value (soybean [10]; 500 g ai/ha) was 40, the “Soybean plant response rating” value (soybean [10]; Test C, 125 g ai/ha) was 40 and the “Wheat plant response rating” value (wheat [11]; 500 g ai/ha) was 20. For the same molecule, the “Wheat plant response rating” value (wheat [11]; Test C, 125 g ai/ha) was 0, the “Plant response rating, Barnyardgrass” value (barnyardgrass [12]; [25]) was 10 and the “Plant response rating, Barnyardgrass” value (barnyardgrass [12]; [27]) was 10. The “Plant response rating, Blackgrass” value (blackgrass [13]; [25]) was 0, the “Plant response rating, Blackgrass” value (blackgrass [13]; [27]) was 10 and the “Plant response rating, Corn” value (corn [14]; [25]) was 0. The “Plant response rating, Corn” value (corn [14]; [27]) was 10, the “Plant response rating, Foxtail, Green” value (green foxtail [15]; [25]) was 10 and the “Plant response rating, Foxtail, Green” value (green foxtail [15]; [27]) was 20. For the same molecule, the “Plant response rating, Kochia” value (kochia [16]; [25]) was 40, the “Plant response rating, Kochia” value (kochia [16]; [27]) was 80 and the “Plant response rating, Oat, Wild” value (oat, wild [17]; [25]) was 0. For the same molecule, the “Plant response rating, Oat, Wild” value (oat, wild [17]; [27]) was 0, the “Plant response rating, Pigweed, Palmer” value (pigweed, palmer [18]; [25]) was 10 and the “Plant response rating, Pigweed, Palmer” value (pigweed, palmer [18]; [27]) was 50. For the same molecule, the “Plant response rating, Ragweed” value (ragweed [19]; [25]) was 30, the “Plant response rating, Ragweed” value (ragweed [19]; [27]) was 30 and the “Plant response rating, Ryegrass, Italian” value (ryegrass, Italian [20]; [25]) was 0. The “Plant response rating, Ryegrass, Italian” value (ryegrass, Italian [20]; [27]) was 20, the “Plant response rating, Soybean” value (soybean [21]; [25]) was 60 and the “Plant response rating, Soybean” value (soybean [21]; [27]) was 80. The “Plant response rating, Wheat” value (wheat [22]; [25]) was 10, the “Plant response rating, Wheat” value (wheat [22]; [27]) was 20 and the “Plant response rating, Galium” value (galium; [25]) was 60. The “Plant response rating, Galium” value (galium; [27]) was 50, the “Plant response rating, Horseweed” value (horseweed; [25]) was 0 and the “Plant response rating, Horseweed” value (horseweed; [27]) was 0. The “Plant response rating, Barnyardgrass (Flood)” value (barnyardgrass [23]) was 0, the “Plant response rating, Ducksalad (Flood)” value (ducksalad) was 0 and the “Plant response rating, Rice (Flood)” value (rice) was 0. The “Plant response rating, Sedge, Umbrella (Flood)” value (sedge, umbrella) was 0.

— patent publication US20260262643A1, “HERBICIDAL BENZOXAZINES” (FMC CORPORATION, priority 2022, published 2026)
